# pIC50: −log10 of the molar value. Where “and” joins values, the source holds several entries; their conditions need not be identical. Identical values can stand only once.
# System: K24384-001-R-PDC complex spheroid viability
# Experiment: Anticancer human tumor K24384-001-R-PDC patient-derived pancreatic adenocarcinoma cell line growth inhibition
# Conditions: for viability, T/C: stronger effect = lower value
# Procedure, shortened: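 Complex spheroids of tumor cells with HUVEC and human MSCs, exposed to iadademstat combined with other agents. Each agent tested in half-log steps from near clinical Cmax (else 10 microM top), DMSO ≤0.25%.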
# [1] = curve of first compound, second compound 0.1 µM
# [2] = curve of first compound, second compound 0.316 µM
# [3] = curve of first compound, second compound 1 µM
# [4] = curve of first compound, second compound 3.16 µM
# [5] = curve of first compound, second compound 10 µM
# 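Further: spheroids exposed to agents for seven days before luminescence viability reading.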
# 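Wherever viability, T/C is given: 100% = DMSO vehicle control viability.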
smiles,measurement,setting,value
Nc1ncn(C2CC(O)C(CO)S2)c(=O)n1 (stereo unspecified) + NC1CC1c1ccc(-c2cccc(O)c2)cc1,pIC50,[1],< 6.52
same,pIC50,[2],< 6.52
same,pIC50,[3],< 6.52
same,pIC50,[4],< 6.52
same,pIC50,[5],< 6.52
same,"viability, T/C","second compound 0.1 µM, first compound 0.000949 µM",102%
same,"viability, T/C","second compound 0.1 µM, first compound 0.003 µM",133%
same,"viability, T/C","second compound 0.1 µM, first compound 0.00949 µM",101%
same,"viability, T/C","second compound 0.1 µM, first compound 0.03 µM",89.8%
same,"viability, T/C","second compound 0.1 µM, first compound 0.0949 µM",67.3%
same,"viability, T/C","second compound 0.1 µM, first compound 0.3 µM",54.9%
same,"viability, T/C","second compound 0.316 µM, first compound 0.000949 µM",102%
same,"viability, T/C","second compound 0.316 µM, first compound 0.003 µM",97.1%
same,"viability, T/C","second compound 0.316 µM, first compound 0.00949 µM",103%
same,"viability, T/C","second compound 0.316 µM, first compound 0.03 µM",87.1%
same,"viability, T/C","second compound 0.316 µM, first compound 0.0949 µM",72.2%
same,"viability, T/C","second compound 0.316 µM, first compound 0.3 µM",52.1%
same,"viability, T/C","second compound 1 µM, first compound 0.000949 µM",124%
same,"viability, T/C","second compound 1 µM, first compound 0.003 µM",110%
same,"viability, T/C","second compound 1 µM, first compound 0.00949 µM",99.2%
same,"viability, T/C","second compound 1 µM, first compound 0.03 µM",87.8%
same,"viability, T/C","second compound 1 µM, first compound 0.0949 µM",73.1%
same,"viability, T/C","second compound 1 µM, first compound 0.3 µM",50.6%
same,"viability, T/C","second compound 3.16 µM, first compound 0.000949 µM",108%
same,"viability, T/C","second compound 3.16 µM, first compound 0.003 µM",113%
same,"viability, T/C","second compound 3.16 µM, first compound 0.00949 µM",108%
same,"viability, T/C","second compound 3.16 µM, first compound 0.03 µM",108%
same,"viability, T/C","second compound 3.16 µM, first compound 0.0949 µM",92.6%
same,"viability, T/C","second compound 3.16 µM, first compound 0.3 µM",56.2%
same,"viability, T/C","second compound 10 µM, first compound 0.000949 µM",136%
same,"viability, T/C","second compound 10 µM, first compound 0.003 µM",131%
same,"viability, T/C","second compound 10 µM, first compound 0.00949 µM",120%
same,"viability, T/C","second compound 10 µM, first compound 0.03 µM",108%
same,"viability, T/C","second compound 10 µM, first compound 0.0949 µM",95.3%
same,"viability, T/C","second compound 10 µM, first compound 0.3 µM",57.2%
COc1cc(C2c3cc4c(cc3C(OC3OC5COC(C)OC5C(O)C3O)C3COC(=O)C23)OCO4)cc(OC)c1O (stereo unspecified),"viability, T/C",compound 0.00949 µM,96.2% and 95.2%
same,"viability, T/C",compound 0.03 µM,91.9% and 98.1%
same,"viability, T/C",compound 0.0949 µM,82% and 74.3%
same,"viability, T/C",compound 0.3 µM,62.3% and 52.5%
same,"viability, T/C",compound 0.949 µM,59.8% and 49.5%
same,"viability, T/C",compound 3 µM,42.1% and 33%
same,pIC50,curve of compound,5.80 and 6.34
COc1ccc([C@@H](O)c2cc(-c3ncnc4cc(N5CCOCC5)ccc34)c(F)cc2Cl)nn1 + NC1CCC(NC2CC2c2ccccc2)CC1,pIC50,[1],5.98
same,pIC50,[2],5.93
same,pIC50,[3],5.95
same,pIC50,[4],5.93
same,pIC50,[5],6.29
same,"viability, T/C","second compound 0.1 µM, first compound 0.0316 µM",94.5%
same,"viability, T/C","second compound 0.1 µM, first compound 0.1 µM",114%
same,"viability, T/C","second compound 0.1 µM, first compound 0.316 µM",89.8%
same,"viability, T/C","second compound 0.1 µM, first compound 1 µM",49%
same,"viability, T/C","second compound 0.1 µM, first compound 3.16 µM",30.2%
same,"viability, T/C","second compound 0.1 µM, first compound 10 µM",14.2%
same,"viability, T/C","second compound 0.316 µM, first compound 0.0316 µM",112%
same,"viability, T/C","second compound 0.316 µM, first compound 0.1 µM",87.4%
same,"viability, T/C","second compound 0.316 µM, first compound 0.316 µM",69.6%
same,"viability, T/C","second compound 0.316 µM, first compound 1 µM",59.8%
same,"viability, T/C","second compound 0.316 µM, first compound 3.16 µM",30.8%
same,"viability, T/C","second compound 0.316 µM, first compound 10 µM",13.9%
same,"viability, T/C","second compound 1 µM, first compound 0.0316 µM",79.7%
same,"viability, T/C","second compound 1 µM, first compound 0.1 µM",98.3%
same,"viability, T/C","second compound 1 µM, first compound 0.316 µM",79.2%
same,"viability, T/C","second compound 1 µM, first compound 1 µM",50.4%
same,"viability, T/C","second compound 1 µM, first compound 3.16 µM",28.4%
same,"viability, T/C","second compound 1 µM, first compound 10 µM",13.4%
same,"viability, T/C","second compound 3.16 µM, first compound 0.0316 µM",77.7%
same,"viability, T/C","second compound 3.16 µM, first compound 0.1 µM",102%
same,"viability, T/C","second compound 3.16 µM, first compound 0.316 µM",77.9%
same,"viability, T/C","second compound 3.16 µM, first compound 1 µM",55%
same,"viability, T/C","second compound 3.16 µM, first compound 3.16 µM",23.9%
same,"viability, T/C","second compound 3.16 µM, first compound 10 µM",14.7%
same,"viability, T/C","second compound 10 µM, first compound 0.0316 µM",71.3%
same,"viability, T/C","second compound 10 µM, first compound 0.1 µM",74.8%
same,"viability, T/C","second compound 10 µM, first compound 0.316 µM",56.7%
same,"viability, T/C","second compound 10 µM, first compound 1 µM",37.7%
same,"viability, T/C","second compound 10 µM, first compound 3.16 µM",22.9%
same,"viability, T/C","second compound 10 µM, first compound 10 µM",12.1%
CC(C)CC(NC(=O)CNC(=O)c1cc(Cl)ccc1Cl)B1OC(=O)CC(CC(=O)O)(C(=O)O)O1 (stereo unspecified),"viability, T/C",compound 0.000316 µM,100% and 107%
same,"viability, T/C",compound 0.001 µM,103% and 86.3%
same,"viability, T/C",compound 0.00316 µM,91.3% and 79.2%
same,"viability, T/C",compound 0.01 µM,42.1% and 59.8%
same,"viability, T/C",compound 0.0316 µM,4.17% and 4.53%
same,"viability, T/C",compound 0.1 µM,0.95% and 1.47%
same,pIC50,curve of compound,8.08 and 7.95
CCc1c2c(nc3ccc(O)cc13)-c1cc3c(c(=O)n1C2)COC(=O)[C@]3(O)CC,"viability, T/C",compound 0.000949 µM,54.8% and 42%
same,"viability, T/C",compound 0.003 µM,49.9% and 39.2%
same,"viability, T/C",compound 0.00949 µM,32.7%
same,"viability, T/C",compound 0.03 µM,9.62% and 11.7%
same,"viability, T/C",compound 0.0949 µM,6.2% and 6.67%
same,"viability, T/C",compound 0.3 µM,5% and 5.21%
same,pIC50,curve of compound,8.50 and > 9.02
